# From patent US11491132B2, “Methods for treating thrombocytopenia” (Enzychem Lifesciences Corporation, priority 2014, dated 2022)
# Experiments:
# [1] = system: platelets and neutrophils; assay: Pilot study: thrombocytopenia and neutropenia in pancreatic cancer patients receiving chemotherapy; format: in vivo, human; details: 16 patients
# Description: PLAG is administered to sixteen pancreatic cancer patients after chemotherapy. The subjects of this study are unoperable pancreatic cancer patients with ECOG (Eastern Cooperative Oncology Group) performance status of “0” or “1”, i.e. patients in good physical condition without much pain, able to enjoy almost normal lifestyle and thus, eligible for anticancer treatment for at least 2 months. The pancreatic cancer patients are “locally advanced” patients having tumor metastasis to the major vessels around pancreas or “Distant metastasis” patients with distant metastasis to liver, lung, bone, etc. ECOG performance status “0” refers to a patient who is asymptomatic, fully active, able to carry on all predisease activities without restriction with no pain and no problem for normal lifestyle, while “1” refers to a patient who is symptomatic but completely ambulatory with mile pain and a little problem for normal life. Anticancer (Gemcitabine and Erlotinib combo treatment) Regimen is as follows: 1,000 mg of Gemcitabine is injected once a week for three weeks (Day 1, Day 8, Day 15), and is not injected in the next one week (Day 22). Therefore, 1 cycle of anticancer treatment requires 1 month. 100 mg of Erlotinib (Tarceva) is administered once per day everyday orally. 1,000 mg of PLAG is also administered once per day orally, starting from 3 days before anticancer treatment until the last chemotherapy treatment. The PLAG treatment group and control group both completed two cycles of anticancer treatment. There is no difference among the control and PALG treatment groups in the amount or schedule of anticancer treatment.
# platelets = assay: Phenylhydrazine-induced platelet reduction in mice; format: in vivo; details: PHZ 100 mg/kg i.p., PLAG 5 mg/kg orally
# Description: To evaluate the effect of PLAG on the concentration of platelets mice are treated with compounds which would be expected to cause reductions in platelet numbers, specifically phenylhydrazine, tamoxifen or lipopolysaccharide.
# Mice are injected with 100 mg/kg phenylhydrazine (PHZ), i.p., to induce anemia and reduction of platelets. 5 mg/kg PLAG is administered to the mice orally and blood samples are taken at 3 and 13 days after. In addition, for comparison, normal mice which are not treated with phenylhydrazine are prepared as a normal group, and mice treated with PHZ and olive oil instead of PLAG are prepared as a control group. The blood samples taken from the mice are treated with 0.5 ml EDTA (Minicollect tube, Greiner bio-one, Austria) and concentration of platelet is measured using automated blood sample analyzer BC-6800 (Mindray, Shenzhen, China) by number of platelet per […] (k: 1,000).
# [2] = system: neutrophils, platelets, Complement 3; assay: Chemotherapy-induced neutropenia and thrombocytopenia (CIN) animal model; format: in vivo, mice
# Description: The effect of PLAG for treatment of neutropenia and thrombocytopenia induced by chemotherapy (CIN) is evaluated in an animal model. Anti-cancer agents (Gemcitabine 50 mg/kg, Cyclosphosphamide […], or Tamoxifen 50 mg/kg) are dosed daily for 3 weeks; PLAG is also administered 50 mg/kg daily for 3 weeks. After three weeks, neutrophils are harvested and counted with Auto Hematology Analyzer BC-5300.
# It is believed that the neutropenia and thrombocytopenia of these agents and other chemotherapeutic agents may be due at least in part to a specific complement-mediated toxicity. This is seen in FIG. 6.
# [3] = system: splenic nodules, primitive progenitor cells and megakaryocytes; assay: Colony forming units in spleen (CFUs) assay in heavily irradiated mice; format: in vivo; details: PLAG 50 mg/kg/d i.p. or p.o.
# Description: In order to determine the in vivo effect of PLAG on the recovery of hematopoiesis, a CFUs assay is performed in heavily irradiated mice.
# C3 = C3 expression in IL-4/TNF-α treated HMC-1 cells, RT-PCR; format: cell-based, human; details: HMC-1 cells treated with IL-4 and TNF-α; PLAG 0.1 and 1 μg/mL pre-treatment, or S6I
# Description: A blood cell line, HMC-1 (human mast cell, American Type Culture Collection, ATCC, Rockville, Md.) is incubated and maintained at 37° C. under 5% CO2 humid conditions. The medium is IMDM (Life Technologies, Karlsruhe, Germany) containing 10% Fetal Calf Serum (FCS, HyClone, Logan, Utah), 2 mM […], 100 μg/ml penicillin, 100 μg/ml streptomycin (Life Technologies). The cultured HMC-1 cells (1×10^6 cell/ml) are pre-treated with 0.1 and 1 μg/mL concentration of PLAG, followed by treating with IL-4 (5 ng) and/or TNF-α (10 ng) to induce cellular activities.
# The expressed C3 and its mRNA level change are observed by using RT-PCR (Reverse Transcriptase Polymerase Chain Reaction). The RT-PCR is carried out as follows: the total RNA is separated by the standard protocol and cDNA is synthesized using AccuScript High Fidelity 1st Strand cDNA Synthesis Kit (Stratagene) by the manufacturer's instructions. Two-step RT-PCR reaction is conducted using Oligo-dT primer and reverse transcriptase, pair of primer and Taq polymerase (Takara, Shiga, Japan). […] The product of PCR is separated using 1.5% agarose gel, dyed with ethidium bromide (EtBr), and visualized with Gel Doc 2000 UV trans-illuminator (Bio-Rad Laboratories, Hercules, Calif., USA), and the experimental data is analyzed using Quantity One software (Bio-Rad Laboratories).
# [4] = Gemcitabine and Erlotinib, PLAG 1,000 mg once per day orally, two cycles
smiles,measurement,setting,value
"CCCCC/C=C\C/C=C\CCCCCCCC(=O)OC(COC(C)=O)COC(=O)CCCCCCCCCCCCCCC (racemic) [PLAG, 1-palmitoyl-2-linoleoyl-3-acetylglycerol]","patients whose platelet number dropped to less than 25,000/μl",[1]; [4],no patient
same,"patients with platelet number decrease to less than 50,000/μl",[1]; [4],no patient
same,patients with >70% decrease in platelet count,[1]; PLAG treatment group,none
same,patients with neutrophil decrease to less than 500/μl,[1]; PLAG treatment group,none
same,patients with neutrophil number decrease to less than 75%,[1]; PLAG treatment group,none and not one patient
same,Platelet (day 3) Conc,platelets,1072 ± 125.4 k/ul
same,neutrophil score,[2]; Gemcitabine 50 mg/kg with PLAG 50 mg/kg,improved significantly
same,survival rate,[2]; Gemcitabine with continued PLAG vs Gemcitabine alone,improved survival rate
same,reduced neutrophil count following chemotherapy,"[2]; Gemcitabine, Cyclophosphamide or Tamoxifen daily 3 weeks, PLAG 50 mg/kg daily 3 weeks",prevented
same,"Complement 3 activation by chemotherapeutic agents, blockage","[2]; Gemcitabine, Cyclophosphamide or Tamoxifen with PLAG",largely blocked
same,activities and survival rate,[2]; Tamoxifen 50 mg/kg co-treated with PLAG 50 mg/kg vs Tamoxifen only,faster improvement of activities and survival rate
same,neutrophil count,[2]; cyclophosphamide with PLAG 50 mg/kg vs control group,improved significantly
same,number of splenic nodules and numbers of primitive progenitor cells and megakaryocytes,[3],marked increase
same,expression of C3,C3,suppressed by PLAG on a concentration dependent basis
